Data: PubChem BioAssay AID2060611 (Molecular Pharmacology Branch, DTP, NCI, 2025)
pIC50: −log10 of the molar value. Several values for one entry are separate records, joined by “and”; a condition that tells them apart may be missing. Equal values may be shown once. Each block holds one compound with its values, some of them ahead of it.

System: 628569-122-R-J1-PDC complex spheroid viability
Assay: Anticancer human tumor 628569-122-R-J1-PDC patient-derived head and neck squamous carcinoma cell line growth inhibition [CLK]
Conditions: for viability, T/C: stronger effect = lower value
How it was run: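 Multi-cell-type spheroids combined patient-derived tumor cells with HUVEC endothelial cells and human mesenchymal stem cells. Paired agents were dosed in half-log steps down from about clinical Cmax, or from 10 microM where Cmax was unknown.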
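Further: spheroids exposed to agents for seven days before readout.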
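Wherever viability, T/C is given: 100% = DMSO vehicle control viability.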

- pIC50 (curve of first compound, second compound 0.0316 µM): 8.33
- pIC50 (curve of first compound, second compound 0.1 µM): 8.58
- pIC50 (curve of first compound, second compound 0.316 µM): > 9.02
- pIC50 (curve of first compound, second compound 1 µM): > 9.02
- pIC50 (curve of first compound, second compound 3.16 µM): > 9.02
- pIC50 (curve of first compound, second compound 10 µM): > 9.02
SMILES: CC(C)CC(NC(=O)C(Cc1ccccc1)NC(=O)c1cnccn1)B(O)O (centres undefined) + CNC(=O)c1ccc(Nc2nc(OC3CCCC3)c3c(-c4ccc5nc(C)oc5c4)c[nH]c3n2)c(OC)c1
- viability, T/C (second compound 0.0316 µM, first compound 0.000949 µM): 106%
- viability, T/C (second compound 0.0316 µM, first compound 0.003 µM): 73.5%
- viability, T/C (second compound 0.0316 µM, first compound 0.00949 µM): 11.5%
- viability, T/C (second compound 0.0316 µM, first compound 0.03 µM): 2.71%
- viability, T/C (second compound 0.0316 µM, first compound 0.0949 µM): 11.1%
- viability, T/C (second compound 0.0316 µM, first compound 0.3 µM): 7.23%
- viability, T/C (second compound 0.1 µM, first compound 0.000949 µM): 67.5%
- viability, T/C (second compound 0.1 µM, first compound 0.003 µM): 47.9%
- viability, T/C (second compound 0.1 µM, first compound 0.00949 µM): 9.96%
- viability, T/C (second compound 0.1 µM, first compound 0.03 µM): 3.01%
- viability, T/C (second compound 0.1 µM, first compound 0.0949 µM): 8.44%
- viability, T/C (second compound 0.1 µM, first compound 0.3 µM): 6.5%
- viability, T/C (second compound 0.316 µM, first compound 0.000949 µM): 48.9%
- viability, T/C (second compound 0.316 µM, first compound 0.003 µM): 41.4%
- viability, T/C (second compound 0.316 µM, first compound 0.00949 µM): 9.14%
- viability, T/C (second compound 0.316 µM, first compound 0.03 µM): 2.35%
- viability, T/C (second compound 0.316 µM, first compound 0.0949 µM): 4.07%
- viability, T/C (second compound 0.316 µM, first compound 0.3 µM): 3.8%
- viability, T/C (second compound 1 µM, first compound 0.000949 µM): 46.9%
- viability, T/C (second compound 1 µM, first compound 0.003 µM): 29.3%
- viability, T/C (second compound 1 µM, first compound 0.00949 µM): 4.76%
- viability, T/C (second compound 1 µM, first compound 0.03 µM): 10.9%
- viability, T/C (second compound 1 µM, first compound 0.0949 µM): 17.6%
- viability, T/C (second compound 1 µM, first compound 0.3 µM): 13.2%
- viability, T/C (second compound 3.16 µM, first compound 0.000949 µM): 46.5%
- viability, T/C (second compound 3.16 µM, first compound 0.003 µM): 18%
- viability, T/C (second compound 3.16 µM, first compound 0.00949 µM): 11.5%
- viability, T/C (second compound 3.16 µM, first compound 0.03 µM): 21%
- viability, T/C (second compound 3.16 µM, first compound 0.0949 µM): 9.26%
- viability, T/C (second compound 3.16 µM, first compound 0.3 µM): 7.04%
- viability, T/C (second compound 10 µM, first compound 0.000949 µM): 44.6%
- viability, T/C (second compound 10 µM, first compound 0.003 µM): 19.1%
- viability, T/C (second compound 10 µM, first compound 0.00949 µM): 9.08%
- viability, T/C (second compound 10 µM, first compound 0.03 µM): 7.35%
- viability, T/C (second compound 10 µM, first compound 0.0949 µM): 11.3%
- viability, T/C (second compound 10 µM, first compound 0.3 µM): 12.8%

- pIC50 (curve of compound): 5.83 and 6.08
SMILES: COC1C=CCC(C)C(C)S(=O)(=O)NC(=O)c2ccc3c(c2)N(CC2CCC21)CC1(CCCc2cc(Cl)ccc21)CO3 (centres undefined)
- viability, T/C (compound 0.0316 µM): 101% and 91.8%
- viability, T/C (compound 0.1 µM): 107% and 82.2%
- viability, T/C (compound 0.316 µM): 73% and 64.9%
- viability, T/C (compound 1 µM): 57.9% and 45.1%
- viability, T/C (compound 3.16 µM): 42.4% and 42.2%
- viability, T/C (compound 10 µM): 36.5% and 33.7%
